Assay results published in PMC9636434, “Discovery of small molecule agonists of the Relaxin Family Peptide Receptor 2” (Communications Biology, 2022).

Target: T1, WT RXFP1 (Homo sapiens, UniProt Q9HBX9)
T1 construct: expressed in transfected cells; host or cells: HEK293T, transient transfection, pcDNA3.1/Zeo(+)
T1 sequence (Q9HBX9 1-757): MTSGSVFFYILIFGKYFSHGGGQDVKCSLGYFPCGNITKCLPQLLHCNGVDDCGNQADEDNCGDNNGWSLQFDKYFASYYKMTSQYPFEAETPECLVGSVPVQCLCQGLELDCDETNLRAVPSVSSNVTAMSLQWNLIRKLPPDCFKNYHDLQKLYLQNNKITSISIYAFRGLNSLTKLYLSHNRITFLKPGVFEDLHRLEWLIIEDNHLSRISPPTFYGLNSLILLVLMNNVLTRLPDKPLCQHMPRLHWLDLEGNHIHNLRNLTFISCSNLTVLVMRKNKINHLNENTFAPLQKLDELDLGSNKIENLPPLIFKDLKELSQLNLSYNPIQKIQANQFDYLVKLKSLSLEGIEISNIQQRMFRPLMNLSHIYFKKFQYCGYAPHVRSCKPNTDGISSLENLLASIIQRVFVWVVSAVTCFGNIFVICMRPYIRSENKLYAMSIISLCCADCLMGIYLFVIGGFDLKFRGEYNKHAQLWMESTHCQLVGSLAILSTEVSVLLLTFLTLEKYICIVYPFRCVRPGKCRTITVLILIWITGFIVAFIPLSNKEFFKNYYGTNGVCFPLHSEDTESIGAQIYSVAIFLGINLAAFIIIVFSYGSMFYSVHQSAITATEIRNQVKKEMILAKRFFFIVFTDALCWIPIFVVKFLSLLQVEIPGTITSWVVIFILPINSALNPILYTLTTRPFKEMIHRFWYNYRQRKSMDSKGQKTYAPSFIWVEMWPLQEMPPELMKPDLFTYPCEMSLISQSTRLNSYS
Assay: HTRF cAMP assay in HEK293T cells transiently transfected with WT RXFP1
Type: cell-based
Method: Fig. 2 6641 is an allosteric agonist of RXFP2. a HEK-RXFP2 cells co-treated with serial dilutions of INSL3 B dimer antagonist and 30 nM INSL3 or 0.28 µM 6641. HTRF cAMP dose-response inhibition curves were normalized to activity without antagonist co-treatment as 0% inhibition. b HTRF cAMP assay in HEK293T cells transiently transfected with WT or chimeric receptors. Chimera RXFP2-1 contains the extracellular domain of RXFP2 and the transmembrane domain of RXFP1, while chimera RXFP1-2 contains the extracellular domain of RXFP1 and the transmembrane domain of RXFP2. For each receptor, cAMP response induced by INSL3 and 6641 was normalized to FSK (2 µM) as 100% efficacy and DMSO vehicle as 0% efficacy. Emax and EC50 were calculated using four parameter nonlinear fit dose-response curves. Results are expressed as mean ± SEM of 3 independent experiments. Diagrams of the chimeric receptors were produced using GPCRdb.org[58], [59].
Complementary RXFP2-1 and RXFP1-2 chimeric receptors were used to further investigate the involvement of the RXFP2 extracellular and transmembrane domains on 6641 activity. RXFP2-1 has the extracellular domain of RXFP2 and transmembrane domain of RXFP1, and RXFP1-2 is its complement.
The HTRF Gs dynamic cAMP assay kit (CisBio, Bedford, MA) was used to measure intracellular cAMP accumulation in HEK293T cells (ATCC, Manassas, VA)[56]. […] The cell stock was verified mycoplasma free and authenticated by ATCC. Transient transfection was accomplished by treating cells in a 6-well plate with a mixture of 2 μg plasmid and 6 μL Lipofectamine 2000 (Invitrogen, Waltham, MA) per manufacturer’s protocol and incubating overnight. For cAMP measurement in 96-well format, HEK293T cells stably transfected with human RXFP2 (HEK-RXFP2), human RXFP1 (HEK-RXFP1), mouse Rxfp1 (HEK-Rxfp1) or transiently transfected with human RXFP1-RXFP2 chimeric receptors were seeded between 7500 and 30,000 cells per well, depending on cell line responsiveness, in serum-free DMEM medium and incubated overnight at 37 °C, 5% CO2. After 18 h, cells were treated with a titration of compound, 2 μM forskolin, or DMSO vehicle. Control wells were also treated with a titration of INSL3 (Phoenix Pharmaceuticals, Burlingame, CA) or human recombinant relaxin 2 (Peprotech, Cranbury, NJ). For the RXFP2 antagonist experiment, cells were co-treated with 0.28 μM compound or 30 nM INSL3 and a titration of the INSL3 B dimer antagonist[38],[39]. For the INSL3 allosteric modulation experiment, cells were co-treated with 0.025, 0.0025, or 0.00025 μM of compound and a titration of INSL3. […] Plates were incubated for 1 h at room temperature and the signal was read on a CLARIOstar plate reader (BMG Labtech, Ortenberg, Germany) at 665 and 620 nm emission wavelengths.

O=C1Nc2ccc(-c3cc(C(F)(F)F)cc(C(F)(F)F)c3)cc2C(=O)N2CCN(C(=O)COc3ccc(OC(F)(F)F)cc3I)C[C@@H]12 [compound 6641]
Inactive: EC50 (1)-(3) (6641, individual experiments) | EC50 (AVERAGE) (6641, mean of 3) | Emax (1)-(3) (individual experiments, FSK (2 µM) = 100% efficacy) | Emax (AVERAGE) (mean of 3, FSK (2 µM) = 100% efficacy)
